From US20240239752A1, “BICYCLIC HETEROAROMATIC INHIBITORS OF KLK5” (BioCryst Pharmaceuticals, Inc., priority 2021, published 2024)

Each molecule was assayed against T1, recombinant human KLK5 (Homo sapiens, UniProt Q9Y337) (assay: Kallikrein (KLK) 5 enzymatic assay (Boc-VPR-AMC fluorogenic substrate)). Conditions: recombinant human KLK5 0.1 μg/well, Boc-VPR-AMC 100 μM, pH 7.5, room temperature, 1% DMSO; tested a minimum of three times.
T1 construct: purchased Novoprotein or R&D Systems C415 or 1108-SE
T1 sequence (Q9Y337 23-293): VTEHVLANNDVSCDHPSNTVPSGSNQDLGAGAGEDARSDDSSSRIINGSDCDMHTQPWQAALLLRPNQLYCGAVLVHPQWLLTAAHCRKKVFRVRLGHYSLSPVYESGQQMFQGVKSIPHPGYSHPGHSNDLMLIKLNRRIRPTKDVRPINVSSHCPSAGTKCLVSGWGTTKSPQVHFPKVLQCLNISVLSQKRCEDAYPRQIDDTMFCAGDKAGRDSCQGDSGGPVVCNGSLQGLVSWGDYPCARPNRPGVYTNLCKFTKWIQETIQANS
Format: biochemical
In short: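 Fluorogenic rate assay at pH 7.5 (0.1 M NaH2PO4, 1% DMSO, room temperature), run at least three times per compound. Compound was premixed with 0.1 μg/well recombinant human KLK5 before adding 100 μM Boc-VPR-AMC; AMC release was read at ex 380/em 460 nm, and IC50 derived from inhibition of rate vs DMSO control.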

Compound	IC50 [nM]
Nc1nccc2c(-c3ccc4c(c3)[C@H](Oc3ccccc3CC(=O)O)CC43CCN(CC(=O)O)CC3)cccc12 [Compound 415b, (R)-2-(2-((5-(1-aminoisoquinolin-5-yl)-1′-(carboxymethyl)-2,3-dihydrospiro[indene-1,4′-piperidin]-3-yl)oxy)phenyl)acetic acid]	< 1000
CCCN1CCC2(CC1)C[C@@H](Oc1ccccc1CC(=O)O)c1cc(-c3ccc4ccnc(N)c4c3)ccc12 [Compound 416c, (R)-2-(2-((5-(1-aminoisoquinolin-7-yl)-1′-propyl-2,3-dihydrospiro[indene-1,4′-piperidin]-3-yl)oxy)phenyl)acetic acid]	< 1000
CCCN1CCC2(CC1)C[C@@H](Oc1ccccc1CC(=O)O)c1cc(-c3cccc4c(N)nccc34)ccc12 [Compound 417b, (R)-2-(2-((5-(1-aminoisoquinolin-5-yl)-1′-propyl-2,3-dihydrospiro[indene-1,4′-piperidin]-3-yl)oxy)phenyl)acetic acid]	< 1000
CCN1CCC2(CC1)C[C@@H](Oc1ccccc1CC(=O)O)c1cc(-c3cccc4c(N)nccc34)ccc12 [Compound 418c, (R)-2-(2-((5-(1-aminoisoquinolin-5-yl)-1′-ethyl-2,3-dihydrospiro[indene-1,4′-piperidin]-3-yl)oxy)phenyl)acetic acid]	< 1000
COc1ccc(CC(=O)O)c(O[C@@H]2CCc3ccc(-c4ccc5ccnc(N)c5c4)cc32)c1 [Compound 419c, (R)-2-(2-((6-(1-aminoisoquinolin-7-yl)-2,3-dihydro-1H-inden-1-yl)oxy)-4-methoxyphenyl)acetic acid]	< 1000
COc1ccc(CC(=O)O)c(O[C@@H]2CCc3ccc(-c4cccc5c(N)nccc45)cc32)c1 [Compound 420b, (R)-2-(2-((6-(1-aminoisoquinolin-5-yl)-2,3-dihydro-1H-inden-1-yl)oxy)-4-methoxyphenyl)acetic acid]	< 1000
Nc1nccc2ccc(-c3ccc4c(c3)[C@H](Oc3cc(F)ccc3CC(=O)O)CC4)cc12 [Compound 421c, (R)-2-(2-((6-(1-aminoisoquinolin-7-yl)-2,3-dihydro-1H-inden-1-yl)oxy)-4-fluorophenyl)acetic acid]	< 1000
Nc1nccc2c(-c3ccc4c(c3)[C@H](Oc3cc(F)ccc3CC(=O)O)CC4)cccc12 [Compound 422b, (R)-2-(2-((6-(1-aminoisoquinolin-5-yl)-2,3-dihydro-1H-inden-1-yl)oxy)-4-fluorophenyl)acetic acid]	< 1000
N#Cc1ccc(CC(=O)O)c(O[C@@H]2CCc3ccc(-c4ccc5ccnc(N)c5c4)cc32)c1 [Compound 423c, (R)-2-(2-((6-(1-aminoisoquinolin-7-yl)-2,3-dihydro-1H-inden-1-yl)oxy)-4-cyanophenyl)acetic acid]	< 1000
N#Cc1ccc(CC(=O)O)c(O[C@@H]2CCc3ccc(-c4cccc5c(N)nccc45)cc32)c1 [Compound 424b, (R)-2-(2-((6-(1-aminoisoquinolin-5-yl)-2,3-dihydro-1H-inden-1-yl)oxy)-4-cyanophenyl)acetic acid]	< 1000
Cc1ccc(CC(=O)O)c(O[C@@H]2CCc3ccc(-c4ccc5ccnc(N)c5c4)cc32)c1 [Compound 425c, (R)-2-(2-((6-(1-aminoisoquinolin-7-yl)-2,3-dihydro-1H-inden-1-yl)oxy)-4-methylphenyl)acetic acid]	< 1000
Cc1ccc(CC(=O)O)c(O[C@@H]2CCc3ccc(-c4cccc5c(N)nccc45)cc32)c1 [Compound 426b, (R)-2-(2-((6-(1-aminoisoquinolin-5-yl)-2,3-dihydro-1H-inden-1-yl)oxy)-4-methylphenyl)acetic acid]	< 1000
Nc1nccc2ccc(-c3ccc4c(c3)[C@H](Oc3cc(C(F)(F)F)ccc3CC(=O)O)CC4)cc12 [Compound 427c, (R)-2-(2-((6-(1-aminoisoquinolin-7-yl)-2,3-dihydro-1H-inden-1-yl)oxy)-4-(trifluoromethyl)phenyl)acetic acid]	< 1000
